{"source": "paper PMC10391610", "about": "“Survivin prevents the polycomb repressor complex 2 from methylating histone 3 lysine 27” (iScience, 2023)", "key": {"[1]": {"target": "T1, [U-15N]-survivin (Homo sapiens, UniProt O15392)", "T1 construct": "transferred to the survivin1-142 construct used in the present study; His8 tag (pHIS8 vector, thrombin-cleavable); made in house; host or cells: E. coli BL21(DE3) star, M9 medium with 15NH4Cl", "T1 sequence (O15392 whole entry)": "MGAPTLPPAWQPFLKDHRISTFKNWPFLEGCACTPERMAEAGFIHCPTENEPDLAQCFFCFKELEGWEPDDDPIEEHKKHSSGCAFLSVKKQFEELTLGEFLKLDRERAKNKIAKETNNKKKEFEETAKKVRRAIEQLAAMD", "assay": "NMR titration of [U-15N]-survivin with PRC2-derived peptides", "type": "binding", "method": "Uniformly [U] labeled [U-^15N] survivin was produced in H2O-based M9 medium[69] containing ^15NH4Cl as the sole nitrogen and in case of or [U-^15N,^13C] survivin D-(^13C)-glucose was additionally added as the sole carbon source, respectively (Sigma-Aldrich). Expression was induced with 0.5 mM IPTG and continued for 20–22 h at 15°C. Cell harvesting and subsequent purification followed the same protocol as for unlabeled survivin.\nNMR measurements were performed on Bruker (Fällanden, Switzerland) AvanceIII 800 MHz spectrometers running Topspin 3.5 or 3.6, respectively, equipped with cryogenically cooled triple resonance probes. All NMR experiments were performed in NMR buffer (50 mM Tris, 150 mM NaCl, 1 mM DTT, pH 7.5) and at 298 K. The sequence-specific backbone assignment of survivin1-117 was taken from previously published assignment,[50] and transferred to the survivin1-142 construct used in the present study. Existing resonance assignments were confirmed, and additional resonances were assigned in a sequence-specific manner by the following experiments: [^1H,^15N]-TROSY HSQC,[70] BEST-TROSY-type HNCA and HNCO experiments.[71]\nThe peptides were synthetized and purified to 95% by Biomatik. The peptides were titrated into ^15N labelled survivin (0.3 mM). Standard 2D [^15N,^1H]-SOFAST-HMQC[72] experiments were recorded with inter-scan delays of 200 ms and 1025 x 256 complex points for the ^1H and ^15N dimensions, respectively, for the titrations of the different peptides with [U-^15N] survivin.\nFor the global analysis, the NMR signal strength was quantified by summing the 200 highest values in each 2D NMR spectrum to ensure that all peaks corresponding to the different amino acid residues in survivin are potentially covered. The titration curve was modelled using a Bayesian machine learning approach using the python library pymc3.[66] The logistic function was chosen due to computational convenience. The most important parameter of this function was coined “critical peptide concentration (cpc)” and its logarithm was modelled using a uniform a priori distribution between −10 and 1. p(log10cpc|lower=−10,upper=1)=1/upper−lower\nThe modelling errors related to the choice of function affect the analysis of different peptides similarly. Therefore, the relative magnitude of cpc in comparison is more reliable than the absolute magnitude of cpc itself. The concentration values were converted to dimensionless quantities by dividing with 1 mM and the NMR signal intensity was normalized for the concentration range studied.\nA deterministic sigmoid (logistic) function was used to model signal decay as a function of peptide concentration. Additional a priori assumptions of the function parameters were the following: p(k|lower=−10,upper=10)=1/upper−lower p(L|lower=−3,upper=3)=1/upper−lower p(b|lower=−10,upper=10)=1/upper−lower\n1000 posterior samples were collected in four parallel chains using the No-U-Turn sampling algorithm (NUTS) after 2000 tuning steps/chain.[83] The default sampling parameters were used except for “target accept” parameter, which was increased to 0.95. For the final analysis the 1000 samples from the four chains were merged to yield 4000 samples."}, "[2]": {"target": "T2, survivin (Homo sapiens, UniProt O15392)", "T2 construct": "transferred to the survivin1-142 construct used in the present study; His8 tag (pHIS8 vector, thrombin-cleavable); made in house; host or cells: E. coli BL21(DE3) star", "T2 sequence (O15392 whole entry)": "as above", "assay": "Biolayer interferometry (reverse), immobilized survivin, EZH2 peptide as analyte", "type": "binding", "settings": "peptide 21.2 µM", "method": "Other phases in the reverse experiment follow the same parameters as in non-reverse experiments mentioned above.\nΔλ(t) values were converted to dimensionless quantities by dividing the wavelength shifts with 1 nm prior to the analysis. To develop the model, we tentatively assumed Langmuir’s 1:1 model.[85] The kinetic modelling was performed with the pymc3 python package[66] using a Bayesian model: p(KD,app|lower=10^−15,upper=10^−3)=1/upper−lower p(k−1|lower=10^−20,upper=10)=1/upper−lower k1=k−1/KD,app p(A|lower=10^−6,upper=10)=1/upper−lower p(ε|lower=10^−6,upper=1)=1/upper−lower p(Δλ(0)|μ=⟨Δλi⟩,σ=1/10∑(Δλi−⟨Δλi⟩)^2/n)=1/2πσe^−1/2σ(Δλ(t)−μ)^2;Δλ(0)∈[10^−20,+∞]\nThe association and dissociation phases were modelled simultaneously, and the probability of wavelength shift during association phase was modeled as: p(Δλ(t)|μ=Ac/KD,app+c(1−e^−(k1c+k−1)t),σ=ε)=1/2πσe^−1/2σ(Δλ(t)−μ)^2\nThe probability of wavelength shift during the dissociation phase was modelled as: p(Δλ(t)|μ=Δλ(0)e^−k−1t,σ=ε)=1/2πσe^−1/2σ(Δλ(t)−μ)^2, where A and k1 are the amplitude and rate constant of the exponential association process, respectively. The concentration of the analyte is c and KD,app is the apparent dissociation constant. The dissociation rate constant is marked with k-1. ε represents the standard deviation of Δλ(t) . […]"}}}
{"sequence": "VELVNALGQYNDDDDDDDGD DPEEREEKQKDLEDHRDDKE [EZH2_172-211, PRC2-derived peptide, EZH2 residues 172–211, synthesized by Biomatik]", "values": [{"measurement": "critical peptide concentration", "setting": "[1]; 300 μM survivin (monomer), pH 7.5, 298 K", "result": 2.1, "unit": "µM"}, {"measurement": "<L>", "setting": "[1]; logistic function parameter L, posterior mean (Table S10)", "result": 0.68}, {"measurement": "<b>", "setting": "[1]; logistic function parameter b, posterior mean (Table S10)", "result": 0.32}, {"measurement": "<k>", "setting": "[1]; logistic function parameter k, posterior mean (Table S10)", "result": -1.04}, {"measurement": "binding strength from slow exchange regime (in words)", "setting": "[1]; new resonances at high peptide concentrations, 298 K", "result": "strong binding in the low nanomolar range or below"}, {"measurement": "k1 (association rate constant)", "setting": "[2]; posterior mean ± SD", "result": "45 ± 0.59", "unit": "M⁻¹ s⁻¹"}, {"measurement": "A (amplitude of association)", "setting": "[2]; posterior mean, SD 1.2×10-3", "result": 0.13, "unit": "nm"}]}
